For 14 compounds, IC50 results are on record in patent publication US11976058B2, “Aromatic derivatives, preparation methods, and medical uses thereof” (Bioardis LLC, priority 2019, dated 2024).

Where two headings read alike, the source gives them in different places.

The test system of one assay is Hep3B cells. In words: Cell-based FGFR4 proliferation assay (CellTiter-Glo). Conditions: incubated with test compound for 3 days, CellTiter-Glo luminescence, read-out: Potency (IC50), Hep3B cell proliferation. The procedure:
Hepatocellular carcinoma cell line Hep3B (ATCC, Cat #HB-8064) were cultured at 37° C., 5% CO2 in ATCC-formulated Eagle's Minimum Essential Medium supplemented with 10% fetal bovine serum; 1% Penicillin-Streptomycin.
(§1) Cell line: Hepatocellular carcinoma cell line Hep3B (ATCC, Cat #HB-8064).
In this assay, Hep3B cells are seeded in 384-well microplates, and after exposure to experimental compounds for […], CellTiter-Glo® Luminescent Cell Viability Assay kit (Promega, Cat #G7572) are used to determine the number of viable cells in the culture based on quantitation of the ATP present, which signals the presence of metabolically active cells. Luminescent signal is proportional to the amount of ATP present. The amount of ATP is directly proportional to the number of cells present in the culture, allowing drug-induced effects on cell proliferation to be measured.
Hep3B cells were plated at a density of 4×10^4/ml cells in a 384-well black/clear microplate with 20 μL per well of MEM Medium (Gibco Cat. #11095-080) supplemented with 10% fetal bovine serum; 1% Penicillin-Streptomycin, and cultured overnight at 37° C., 5% CO2. Various concentrations of the test compound (dissolved in 100% DMSO) were added to the wells of the cell plate. The cells were incubated with the test compound for 3 days at 37° C., 5% CO2. 5 μL of CellTiter-Glo® Reagent was added to each well of the cell plate. The cell plate was incubated for 5 min at 25° C. on a plate shaker (IKA MTS 2/4) at 300 rpm. Luminescence signals were read on a TECAN Spark 10M instrument (TECAN). […] The concentrations and percent inhibition values for a test compound were plotted and the concentration of the compound required to achieve 50% inhibition (IC50) is determined with a four-parameter logistic dose response equation. Dose-response curves were generated using Prism (GraphPad Software, La Jolla, CA, US) to calculate IC50 values for each compound tested.

Assay [1] has as its system MAPK phosphorylation in Hep3B cells stimulated with FGF19. In words: FGFR4 pMAPK AlphaLISA SureFire Ultra assay. The assay is classed as cell-based. Conditions: serum-starved, compound 1 hour, FGF19 100 ng/ml for 4 hours, read-out: Potency (IC50), FGFR4 pMAPK AlphaLISA.
Excerpt: as §1
In normal liver, circulating FGF19 drives liver cell proliferation and regulates bile acid production. However aberrant expression of FGF19 in the liver drives HCC tumorigenesis, upregulates MAPK phosphorylation in FGF19-amplified malignant liver cells. AlphaScreen SureFire technology allows the detection of phosphorylated proteins in cellular lysates in a highly sensitive, quantitative assay. In these assays, sandwich antibody complexes, which are only formed in the presence of analyte, are captured by AlphaScreen Donor and Acceptor beads, bringing them into close proximity. The excitation of the Donor bead provokes the release of singlet oxygen molecules that triggers a cascade of energy transfer in the Acceptor beads, resulting in the emission of light at 520-620 nm.
Hep3B cells were plated at a density of 1×10^4/ml cells in a 96-well plate (Corning #3599), with 100 uL per well of MEM Medium (Gibco Cat #11095-080) supplemented with 10% fetal bovine serum; 1% Penicillin-Streptomycin, and cultured overnight at 37° C., 5% CO2. Starve Hep3B cells in serum-free medium (SFM) supplemented with 0.2% BSA and incubate the cells again overnight at 37° C., 5% CO2. Various concentrations of the test compound (prepared in 2x SFM) were added to the wells of the cell plate and then incubated for 1 hour at 37° C., 5% CO2. 50 μL of FGF19 in SFM was added to each well of the cell plate with a final FGF19 concentration of 100 ng/ml, and cells treated with FGF19 were stimulated for 4 hours at 37° C., 5% CO2. 5 μL of freshly prepared Donor Mix and Acceptor Mix were sequentially added to the cell plate, each followed with 1 hour of incubation at 25° C., 5% CO2. Read the cell plate on an Alpha Technology-compatible plate reader at 570 nm AlphaScreen, using standard AlphaLISA settings. The percent (%) inhibition=((ZPE−Alpha-Signal)/(ZPE−HPE))*100% where the meanings of HPE and ZPE are as provided below.
HPE: Hundred Percent Effect, negative control well without FGF19 nor compound. Final concentration of DMSO is 0.1%.
ZPE: Zero Percent Effect, positive control well without compound. Final concentration of FGF19 is 100 ng/mL, DMSO is 0.1%.
The concentrations and percent inhibition values for a test compound were plotted and the concentration of the compound required to achieve 50% inhibition (IC50) was determined with a four-parameter logistic dose response equation. Dose-response curves were generated using Prism (GraphPad Software, La Jolla, CA, US) to calculate IC50 values for each compound tested.

Another assay addresses T1, human FGFR4 (Homo sapiens, UniProt P22455).
T1 construct: human FGFR4 cytoplasmic domain (460-802); GST (N); purchased Carna Biosciences 08-136
In words: FGFR4 enzymatic assay (HTRF KinEASE-TK). It counts as biochemical. The conditions noted are these: wild-type human FGFR4 cytoplasmic domain (460-802), GST-tag; 60 min preincubation at 25° C.; ATP 200 μM; read-out: Potency (IC50), FGFR4 enzymatic assay. A digest of the protocol: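 GST-tagged FGFR4 cytoplasmic domain (460-802) at 0.25 μg/ml, preincubated with compound 60 min at 25 °C in HEPES pH 7.0 buffer, then reacted 40 min at 37 °C with 0.3 μM biotin-TK peptide and 200 μM ATP. HTRF detection (665/612 nm) after 60 min; IC50 by four-parameter logistic fit.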

T1 sequence (P22455 460-802): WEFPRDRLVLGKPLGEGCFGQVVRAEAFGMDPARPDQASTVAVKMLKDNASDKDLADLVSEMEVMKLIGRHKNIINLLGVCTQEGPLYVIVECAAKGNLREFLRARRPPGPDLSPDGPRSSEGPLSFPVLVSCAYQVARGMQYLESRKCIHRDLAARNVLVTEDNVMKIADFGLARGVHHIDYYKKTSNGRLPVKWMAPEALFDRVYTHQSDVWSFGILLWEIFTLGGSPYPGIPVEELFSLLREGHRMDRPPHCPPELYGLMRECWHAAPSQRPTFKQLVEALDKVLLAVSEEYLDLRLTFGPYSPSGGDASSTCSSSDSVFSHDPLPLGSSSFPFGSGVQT

As to `C=CC(=O)Nc1cn[nH]c1-c1n[nH]c2c1CCCC(c1cc(OC)cc(OC)c1F)C2` (single isomer, unassigned) [Compound S11-P3, N-(5-(7-(2-fluoro-3,5-dimethoxyphenyl)-1,4,5,6,7,8-hexahydrocyclohepta[c]pyrazol-3-yl)-1H-pyrazol-4-yl)acrylamide], the IC50 in the assay with Hep3B cells (Homo sapiens, Hep3B, 72 h) is 10 to 100 nM; in assay [1] (Homo sapiens, Hep3B) it was less than 10 nM; at human FGFR4 it was less than 10 nM.
For `C=CC(=O)Nc1cn[nH]c1-c1n[nH]c2c1CCCC(c1cc(OC)cc(OC)c1F)C2` (single isomer, unassigned) [Compound S11-P4, N-(5-(7-(2-fluoro-3,5-dimethoxyphenyl)-1,4,5,6,7,8-hexahydrocyclohepta[c]pyrazol-3-yl)-1H-pyrazol-4-yl)acrylamide], the IC50 (in the assay on Hep3B cells; in assay [1]; at human FGFR4) was less than 10 nM throughout.
With `C=CC(=O)Nc1cn(C)nc1-c1n[nH]c2c1CCC[C@H](c1c(F)c(OC)cc(OC)c1F)C2` (single isomer, unassigned) [Compound S12-P1], the IC50 with Hep3B cells (Homo sapiens, Hep3B, 72 h) was 10 to 100 nM; in assay [1] (Homo sapiens, Hep3B), less than 10 nM; on human FGFR4, less than 10 nM.
In the case of `C=CC(=O)Nc1cn(C)nc1-c1n[nH]c2c1CCCC(c1cc(OC)cc(OC)c1F)C2` (single isomer, unassigned) [Compound S12-P3, N-(3-(7-(2-fluoro-3,5-dimethoxyphenyl)-1,4,5,6,7,8-hexahydrocyclohepta[c]pyrazol-3-yl)-1-methyl-1H-pyrazol-4-yl) acrylamide], the IC50 in the assay on Hep3B cells (Homo sapiens, Hep3B, 72 h) was 10 to 100 nM; in assay [1] (Homo sapiens, Hep3B), less than 10 nM; at human FGFR4, 10 to 100 nM.
For the compound `C=CC(=O)Nc1cn(C)nc1-c1n[nH]c2c1CCCC(c1cc(OC)cc(OC)c1F)C2` (single isomer, unassigned) [Compound S12-P4, N-(3-(7-(2-fluoro-3,5-dimethoxyphenyl)-1,4,5,6,7,8-hexahydrocyclohepta[c]pyrazol-3-yl)-1-methyl-1H-pyrazol-4-yl) acrylamide], the IC50 (with Hep3B cells; in assay [1]; at human FGFR4) was less than 10 nM in each case.
Turning to `C=CC(=O)Nc1c[nH]nc1-c1n[nH]c2c1CCC(c1c(F)c(OC)cc(OC)c1F)C2` (single isomer, unassigned) [Compound S15-P1, N-(3-(6-(2,6-difluoro-3,5-dimethoxyphenyl)-4,5,6,7-tetrahydro-1H-indazol-3-yl)-1H-pyrazol-4-yl)acrylamide], the IC50 is less than 10 nM with Hep3B cells (Homo sapiens, Hep3B, 72 h); less than 10 nM in assay [1] (Homo sapiens, Hep3B); less than 10 nM at human FGFR4.
Turning to `C=CC(=O)Nc1c[nH]nc1-c1n[nH]c2c1CCC(c1cc(OC)cc(OC)c1F)C2` (single isomer, unassigned) [Compound S15-P3, N-(3-(6-(2-fluoro-3,5-dimethoxyphenyl)-4,5,6,7-tetrahydro-1H-indazol-3-yl)-1H-pyrazol-4-yl)acrylamide], the IC50 is 10 to 100 nM with Hep3B cells (Homo sapiens, Hep3B, 72 h); less than 10 nM in assay [1] (Homo sapiens, Hep3B); 10 to 100 nM at human FGFR4.
Consider `C=CC(=O)Nc1c[nH]nc1-c1n[nH]c2c1CCC(c1cc(OC)cc(OC)c1F)C2` (single isomer, unassigned) [Compound S15-P4, N-(3-(6-(2-fluoro-3,5-dimethoxyphenyl)-4,5,6,7-tetrahydro-1H-indazol-3-yl)-1H-pyrazol-4-yl)acrylamide], for which the figures for the IC50 (in the assay on Hep3B cells; in assay [1]; at human FGFR4) were 10 to 100 nM, less than 10 nM and 10 to 100 nM, respectively.
As for `[2H]C([2H])([2H])n1ncc(NC(=O)C=C)c1-c1n[nH]c2c1CCC(c1c(F)c(OC)cc(OC)c1F)C2` (single isomer, unassigned) [Compound S16-P1, N-(5-(6-(2,6-difluoro-3,5-dimethoxyphenyl)-4,5,6,7-tetrahydro-1H-indazol-3-yl)-1-(methyl-d3)-1H-pyrazol-4-yl)acrylamide], the IC50 in the assay with Hep3B cells (Homo sapiens, Hep3B, 72 h) was 10 to 100 nM; in assay [1] (Homo sapiens, Hep3B), less than 10 nM; at human FGFR4, less than 10 nM.
As for `[2H]C([2H])([2H])n1ncc(NC(=O)C=C)c1-c1n[nH]c2c1CCC(c1cc(OC)cc(OC)c1F)C2` (single isomer, unassigned) [Compound S16-P3, N-(5-(6-(2-fluoro-3,5-dimethoxyphenyl)-4,5,6,7-tetrahydro-1H-indazol-3-yl)-1-(methyl-d3)-1H-pyrazol-4-yl)acrylamide], the IC50 with Hep3B cells (Homo sapiens, Hep3B, 72 h) was more than 100 nM; in assay [1] (Homo sapiens, Hep3B), 10 to 100 nM; on human FGFR4 it was 10 to 100 nM.
On to `[2H]C([2H])([2H])n1ncc(NC(=O)C=C)c1-c1n[nH]c2c1CCC(c1cc(OC)cc(OC)c1F)C2` (single isomer, unassigned) [Compound S16-P4, N-(5-(6-(2-fluoro-3,5-dimethoxyphenyl)-4,5,6,7-tetrahydro-1H-indazol-3-yl)-1-(methyl-d3)-1H-pyrazol-4-yl)acrylamide], for which the values for the IC50 (in the assay on Hep3B cells; in assay [1]; on human FGFR4) were more than 100 nM, 10 to 100 nM and 10 to 100 nM, respectively.
Take `C=CC(=O)Nc1cnn(C(C)C)c1-c1n[nH]c2c1CCC(c1c(F)c(OC)cc(OC)c1F)C2` (single isomer, unassigned) [Compound S17-P1, N-(5-(6-(2,6-difluoro-3,5-dimethoxyphenyl)-4,5,6,7-tetrahydro-1H-indazol-3-yl)-1-isopropyl-1H-pyrazol-4-yl)acrylamide]: the IC50 in the assay on Hep3B cells is more than 100 nM; in assay [1] (Homo sapiens, Hep3B), 10 to 100 nM; on human FGFR4, 10 to 100 nM.
For the compound `C=CC(=O)Nc1cnn(C(C)C)c1-c1n[nH]c2c1CCC(c1c(F)c(OC)cc(OC)c1F)C2` (single isomer, unassigned) [Compound S17-P2, N-(5-(6-(2,6-difluoro-3,5-dimethoxyphenyl)-4,5,6,7-tetrahydro-1H-indazol-3-yl)-1-isopropyl-1H-pyrazol-4-yl)acrylamide], the IC50 with Hep3B cells is 10 to 100 nM; in assay [1], less than 10 nM; at human FGFR4, 10 to 100 nM.
Consider `C=CC(=O)Nc1cnn(C)c1-c1n[nH]c2c1CCC(c1c(F)c(OC)cc(OC)c1F)=C2` [Compound S5-P1, N-(5-(6-(2,6-difluoro-3,5-dimethoxyphenyl)-4,5-dihydro-1H-indazol-3-yl)-1-methyl-1H-pyrazol-4-yl) acrylamide], for which the IC50 is 10 to 100 nM with Hep3B cells (Homo sapiens, Hep3B, 72 h); less than 10 nM in assay [1] (Homo sapiens, Hep3B); 10 to 100 nM on human FGFR4.
